Literature values as cited in EP2687509A2, “Dicarboxyimides derivatives for use in the treatment of cancer” (Warszawski Uniwersytet Medyczny, priority 2012, dated 2014).

Experiments:
[1] = mouse, in vivo; cited from earlier work
[2] = tested on: murine leukemia, breast cancer and orthotopic models of non-small cell lung cancer and pancreatic cancer; details: cited from earlier work
[3] = higher than for the lead compound amonafide; cited from earlier work

In the case of CN(C)CCN1C(=O)c2cccc3cc(NC(=O)NC(=O)C(Cl)(Cl)Cl)cc(c23)C1=O [UNBS3157, 2,2,2-trichloro-N-({2-[2-(dimethylamino)ethyl]-1,3-dioxo-2,3-dihydro-1H-benzo[de]izoquinolino-5-ylo}carbamoylo)acetamide], the haemotoxicity [1] is listed as “no haemotoxicity”, the “activity in in vivo models compared to amonafide” value [2] is listed as “enhanced activity” and the “maximum tolerated dose relative to amonafide” value [3] is listed as “about 4 x”.
